Test results taken from patent EP2545914A1, “2-amino-2-oxoethyl trans-3-[5-(6-methoxy-naphtalen-1-yl)-1,3-dioxan-2-yl]propyl-carbamate for use in the treatment of persistent cancer pain” (SANOFI, priority 2011, dated 2013).
Like-named read-outs stand apart in the source and are kept apart here.

Columns and labels:
[1] = test system: mice inoculated with BO2 breast carcinoma cells; experiment: Tactile allodynia (Dynamic Plantar Aesthesiometer) in a model of bone metastatic cancer pain induced by BO2 cells; assay type: in vivo, female BALB/cByJ Ico-nu/nu mice; settings: for paw withdrawal thresholds to non-noxious stimulations versus vehicle-treated animals: p<0.0001; for Reversal of allodynia (%): T2h; for Delta values (Delta PWT): T2h minus T0
Experimental: The model of cancer pain MDA-MB-231 breast cancer cells cause the development of highly vascularized skeletal lesions in animals. Here, we chose to perform a model of bone metastasis induced by BO2 cells, a sub-clone of MDA-MB-231 cancer cells expressing the bioluminescent jellyfish protein (green fluorescent protein). BO2 cells were inoculated into the tail of nude mice. […] In our study, BO2 invasion of the hind paws was evaluated by combining both fluorescence imaging and X-Ray radiology with evaluation of allodynic-like behavior in the tumor-bearing hind paws. The aim of the study was to assess the anti-allodynic activity of Compound A in a model of bone metastatic cancer pain in mice, at the time when allodynia-like symptoms are fully developed.
Non-fasted female BALB/cByJ Ico-nu/nu mice (aged 4 weeks at the beginning of the experimental phase, Charles River Laboratories, L'Arbresle, France) were used for this study. One week before starting the experiment and to enable full acclimatization, mice were caged in groups of 10 animals per cage. They were housed in macrolon type III cages with filter hoods in a sterile room in which the air was continuously filtered to avoid any contamination. The sterility of the room was checked once a month and the cages were sterilized at 121°C for 30 minutes before use and changed twice a week. Room temperature was maintained at 22°C, and relative humidity at 60% ±10%. The animals were kept under a natural daylight cycle. The animals were fed with RO3 irradiated at 10 kGy, purchased from UAR (91360 Epinay sur Orge, France), and water sterilized at 121°C for 30 minutes. Water consumption was visually monitored daily and the bottles were changed twice a week. Food and water were given ad libitum. The animal bedding was produced by UAR and sterilized at 121°C for 30 minutes and renewed twice a week. One day before the beginning of the study, mice were implanted in the back with an electronic chip for identification purposes. The day of BO2 breast carcinoma inoculation into the tail vein, mice were placed in groups of 9 or 8 animals per cage. Tumor progression (fluorescence imaging +X-Ray radiology) associated with evoked pain behavior were measured at least once a week during the entire study (data available on request). This allowed us to ensure that only mice with tumor progression and pain-like behavior were selected to enter in the testing procedure.
Compound A as a base was prepared extemporaneously as follows: the compound was weighed and 0.5% of Tween 80 was added, followed by addition of 0.6% Methyl Cellulose. The resulting suspensions were maintained at room temperature under magnetic stirring until the administration. Compound A was administered via oral gavage in a volume of 10 mL/kg, once daily for 7 days. On the first day of treatment, Compound A was administered at 30 mg/kg. From day 2 to day 7, Compound A was administered at 10 mg/kg.
For the present study, 2 groups of 8 mice receiving the BO2 breast carcinoma cells and 1 group of 8 mice (control animals) receiving only the culture medium were used (Table 1.1). Table 1.1 - Design of the study
No animals were excluded for this study. However, one mouse died in one of the BO2-inoculated groups (mouse found dead in the cage on day 7), while no mice died in the control group (n = 8). No randomization was performed at the beginning of the experiment and mice were treated by cage. A seven day treatment with Compound A or vehicle was performed with evaluation of evoked pain at day 1, day 3 and day 7 post-treatment. As bone metastases were distributed in both hind-paws, we decided at the beginning of the study to arbitrarily measure pain-like behavior evoked by a stimulus in only one hind-paw (the right hind-paw). Pain-like behaviors before and after treatment with vehicle or Compound A were evaluated during 3 sessions (i.e. on day 1, day 3 and day 7). […]

[2] = test system: UDP-glucuronosyl transferase; assay type: in vitro ADME, human; settings: for % Control (M6G formation) / % Control (M3G formation): Morphine 2mM, protein 0.5 mg/mL, 30 min
Experimental: Incubations were conducted in 2-mL polypropylene centrifuge tubes. Incubation mixtures containing HLM suspension and alamethicin (25 µg/mL) in 0.1 M potassium phosphate buffer (pH 7.4), were placed on wet ice for 5 min. […] Reactions were initiated by the addition of 50 mM UDPGA spiking solution. […] Samples were incubated aerobically in a water bath at 37 °C for the required amount of time and reactions terminated by the addition of 400 µL of the appropriate quench solution. The 2-mL centrifuge tubes were vortex mixed and stored in a -20 °C freezer for ca. 20 min prior to centrifugation at 13.3 x g, 4 °C for 10 min. Supernatants were analyzed by LC-MS/MS for morphine metabolites formation.
UGT-dependent activities were determined by monitoring the formation of enzyme specific metabolites from marker substrates. […] Incubation with selective inhibitors (positive control) was performed at a concentration above their established IC50 for the confirmation of enzyme activity and inhibitory effects.
Incubations were performed in 2-mL centrifuge tubes. Incubation mixtures containing HLM suspension and alamethicin (25 µg/mL) in 0.1 M potassium phosphate buffer (pH 7.4), were placed on wet ice for 5 min. […] Reactions were initiated by the addition of UDPGA. The final incubation mixture contained 0.5 mg/mL HLM, 2 mM MgCl2, 5 mM UDPGA, various concentration of Compound A or a selective inhibitor. Samples were incubated aerobically in a water bath at 37 °C for 30 min. The incubation systems were terminated by the addition of a 400-µL quenching solution. The 2-mL centrifuge tubes were vortex mixed and stored in a -20 °C freezer for approximately 20 min prior to centrifugation at 13.3 x g, 4 °C for 10 min. Supernatants were analyzed by LC-MS/MS.
Percent of Control = Cmet÷Ccontrol × 100% [formula] • Cmet: Concentration of the metabolite in the incubations in the presence of Compound A or selective inhibitor • Ccontrol: Concentration of the enzyme-specific metabolite in the incubations in the absence of Compound A and selective inhibitor • The IC50 for Compound A was estimated by non-linear regression analysis of individual sets of percent inhibition values using GraphPad Prism 5.

## COc1ccc2c(cccc2[C@H]2CO[C@H](CCCNC(=O)OCC(N)=O)OC2)c1 [Compound A, 2-amino-2-oxoethyl trans-3-[5-(6-methoxy-naphtalen-1-yl)-1,3-dioxan-2-yl]propyl-carbamate]
[1]; 10 mg/kg PO once daily, day 3 and day 7
  paw withdrawal thresholds to non-noxious stimulations versus vehicle-treated animals: significantly higher
[1]; Day 3, 10 mg/kg PO
  Reversal of allodynia (%): 45.06 ±3.11%
  Delta values (Delta PWT): 0.78 ±0.06
[1]; Day 7, 10 mg/kg PO
  Reversal of allodynia (%): 41.87 ±4.01%
  Delta values (Delta PWT): 0.79 ±0.08
[1]; acute oral dosing, allodynia fully installed
  evoked-pain induced by bone metastases in the hind-paw: significantly reversed
[1]; day 1, 30 mg/kg PO, Mean ±SEM
  Reversal of allodynia (%): 68.74 ±8.99%
  Delta values (Delta PWT): 1.04 ±0.13
[1]; day 1, T0 (baseline before administration), group dosed 30 mg/kg PO, Mean ±SEM
  PWT values at T0: 1.815 ±0.065 gram
[1]; day 7, T0 (before that day's administration), 10 mg/kg PO once daily, Mean ±SEM
  PWT values at T0: 1.728 ±0.050 gram
[1]; first day, 30 mg/kg PO
  paw withdrawal thresholds to non-noxious stimulations versus vehicle-treated animals: significantly higher
[1]; repeated (7 days) administration
  tolerance in analgesic effect: did not induce tolerance
[2]; 2 mM morphine, Compound A 0.5 to 250 µM, HLM
  IC50 (M3G and M6G formation): could not be estimated
[2]; Compound A 0.5 µM
  % Control (M6G formation): 96.9%
[2]; Compound A 1.0 µM
  % Control (M6G formation): 94.4%
[2]; Compound A 5.0 µM
  % Control (M6G formation): 102.4%
[2]; Compound A 10 µM
  % Control (M6G formation): 110.4%
[2]; Compound A 25 µM
  % Control (M6G formation): 105.8%
[2]; Compound A 50 µM
  % Control (M6G formation): 108.3%
[2]; Compound A 100 µM
  % Control (M6G formation): 97.4%
[2]; Compound A 250 µM
  % Control (M6G formation): 96.5%
[2]; Compound A 0.5 µm
  % Control (M3G formation): 97.7%
[2]; Compound A 1.0 µm
  % Control (M3G formation): 96.2%
[2]; Compound A 5.0 µm
  % Control (M3G formation): 106.0%
[2]; Compound A 10 µm
  % Control (M3G formation): 107.9%
[2]; Compound A 25 µm
  % Control (M3G formation): 108.3%
[2]; Compound A 50 µm
  % Control (M3G formation): 105.7%
[2]; Compound A 100 µm
  % Control (M3G formation): 92.7%
[2]; Compound A 250 µm
  % Control (M3G formation): 94.2%
[2]; according to in vitro results
  drug interaction with morphine: no significant drug interaction
[2]; human liver microsomes, M3G and M6G formation
  inhibition of morphine metabolism: no inhibition

## CC(=O)N1CCN(c2ccc(OCC3COC(Cn4ccnc4)(c4ccc(Cl)cc4Cl)O3)cc2)CC1 (centres unmarked) [ketoconazole, reference compound]
[2]; positive control, same conditions (2 mM morphine, HLM 0.5 mg/mL, 30 min)
  inhibition of M6G activity: ≥ 98.5%
